Experimental data taken from patent US6444617B1, “Fused-heterocycle dicarboxylic acid diamide derivatives or salts thereof, herbicide and usage thereof” (Nihon Nohyaku Co., Ltd., priority 1998, dated 2002).

Legend:
Format in all cases: in vivo
[1] = tested on: bird's eye speedwell (Veronica persica Poir.), Vp; test: Test Example 4: herbicidal effect on upland weeds after emergence; details: dosage 5 kg/ha; sprayed after emergence; judged 14 days after treatment
In short: (§1)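 Seeds sown in soil and covered. Plants raised to specified leaf stages. Agent with test compound at a prescribed concentration sprayed. Herbicidal effect and crop damage scored after 14 days as weed-killing rate.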

[2] = tested on: cocklebur (Xanthium strumarium L.), Xs; test: as above; details: dosage 5 kg/ha; sprayed after emergence; judged 14 days after treatment
In short: as §1

[3] = tested on: velvetleaf (Abutilon theophtasti L.), At; test: as above; details: dosage 5 kg/ha; sprayed after emergence; judged 14 days after treatment
In short: as §1

[4] = tested on: cleavers (Galium aparine L.), Ga; test: as above; details: dosage 5 kg/ha; sprayed after emergence; judged 14 days after treatment
In short: as §1

[5] = tested on: forxtail grass (Alopecurus aequalis var. amurensis Ohwi), Am; test: as above; details: dosage 5 kg/ha; sprayed after emergence; judged 14 days after treatment
In short: as §1

[6] = tested on: barnyard grass (Echinochloa crus-galli Beauv.), Ec; test: as above; details: dosage 5 kg/ha; sprayed after emergence; judged 14 days after treatment
In short: as §1

[7] = tested on: barnyard grass (Echinochloa crus-galli Beauv.); test: Test Example 2: herbicidal effect on paddy field weeds after emergence; details: Dosage 5 kg/ha; one-leaved stage; 21 days after treatment
In short: (§2)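 Weeds in flooded paddy-soil pots were grown to the one-leaved stage, then the soil was treated with the compound solution at a set dosage.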

[8] = tested on: bulrush (Scirpus juncoides Roxb.); test: as above; details: Dosage 5 kg/ha; one-leaved stage; 21 days after treatment
In short: as §2

[9] = tested on: monochoria (Monochoria vaginalis Presl); test: as above; details: Dosage 5 kg/ha; one-leaved stage; 21 days after treatment
In short: as §2

[10] = tested on: barnyard grass (Echinochloa crus-galli Beauv.); test: Test Example 1: herbicidal effect on paddy field weeds before emergence; details: Dosage 5 kg/ha
In short: (§3)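 Soil in pots is brought to paddy state and seeded with barnyard grass and bulrush; before germination, the soil receives a predetermined dosage of test compound in solution. After twenty-one days, control rate relative to untreated pots is calculated and graded.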

[11] = tested on: bulrush (Scirpus juncoides Roxb.); test: as above; details: Dosage 5 kg/ha
In short: as §3

soybean plant = test: Test Example 4: phytotoxicity to upland crop plants, treatment after emergence; details: dosage 5 kg/ha, sprayed after emergence, judged 14 days after treatment
In short: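 Post-emergence foliar spray, compound at prescribed concentration, applied at defined leaf stages; weeds plus soybean/wheat grown in soil vats. Read-out: weed-killing rate and crop injury, 14 d post-treatment.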

wheat = test: as above; details: dosage 5 kg/ha, sprayed after emergence, judged 14 days after treatment
In short: as §1

soybean plant (So) = test: Test Example 3: phytotoxicity to upland crop plants, treatment before emergence; details: dosage 5 kg/ha
In short: (§4)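 Phytotoxicity scores for soybean and wheat were assigned by a set criterion 14 days after a pre-emergence spray of a liquid preparation containing the test compound at a prescribed concentration.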

wheat (Wh) = test: as above; details: dosage 5 kg/ha
In short: as §4

[12] = tested on: bird's eye speedwell (Veronica persica Poir.), Vp; test: Test Example 3: herbicidal effect on upland weeds before emergence; details: dosage 5 kg/ha
In short: (§5)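 Test compound, formulated as a liquid at a fixed concentration, is sprayed before weed emergence. Two weeks later, kill rate is derived and herbicidal activity is rated.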

[13] = tested on: cocklebur (Xanthium strumarium L.), Xs; test: as above; details: dosage 5 kg/ha
In short: as §5

[14] = tested on: velvetleaf (Abutilon theophtasti L.), At; test: as above; details: dosage 5 kg/ha
In short: as §5

[15] = tested on: cleavers (Galium aparine L.), Ga; test: as above; details: dosage 5 kg/ha
In short: as §5

[16] = tested on: forxtail grass (Alopecurus aequalis var. amurensis Ohwi), Am; test: as above; details: foxtail grass, dosage 5 kg/ha
In short: as §5

[17] = tested on: barnyard grass (Echinochloa crus-galli Beauv.), Ec; test: as above; details: dosage 5 kg/ha
In short: as §5

SMILES | Herbicidal effect Vp [1] | Herbicidal effect Xs [2] | Herbicidal effect At [3] | Herbicidal effect Ga [4] | Herbicidal effect Am [5] | Herbicidal effect Ec [6] | Post-emergence treatment Barnyard grass (herbicidal effect) [7] | Post-emergence treatment Bulrush (herbicidal effect) [8] | Post-emergence treatment Monochoria (herbicidal effect) [9] | Pre-emergence treatment Barnyard grass (herbicidal effect) [10] | Pre-emergence treatment Bulrush (herbicidal effect) [11] | Phytotoxicity So (soybean plant) | Phytotoxicity Wh (wheat) | Phytotoxicity So (soybean plant (So)) | Phytotoxicity Wh (wheat (Wh)) | Herbicidal effect Vp [12] | Herbicidal effect Xs [13] | Herbicidal effect At [14] | Herbicidal effect Ga [15] | Herbicidal effect Am [16] | other results
CCCNC(=O)c1nc2occc2cc1C(=O)Nc1c(CC)ccc(Cl)c1CC [compound 775] | 5 (Weed-killing rate is 100%.) | 5 (Weed-killing rate is 100%.) | 5 (Weed-killing rate is 100%.) | 5 (Weed-killing rate is 100%.) | 5 (Weed-killing rate is 100%.) | 5 (Weed-killing rate is 100%.) | 5 (Weed-killing rate is 100%.) | 5 (Weed-killing rate is 100%.) | 5 (Weed-killing rate is 100%.) | 5 (Weed-killing rate is 100%.) | 5 (Weed-killing rate is 100%.) | 5 (Crop-killing rate is 100%.) | 5 (Crop-killing rate is 100%.) | 5 (Crop-killing rate is 100%.) | 5 (Crop-killing rate is 100%.) | 5 (Weed-killing rate is 100%.) | 5 (Weed-killing rate is 100%.) | 5 (Weed-killing rate is 100%.) | 5 (Weed-killing rate is 100%.) | 5 (Weed-killing rate is 100%.) | Herbicidal effect Ec [17]: 5 (Weed-killing rate is 100%.)
Cc1c(Cl)cccc1NC(=O)c1cc2ccoc2nc1C(=O)NC1CCCC1 [compound 796] | 5 (Weed-killing rate is 100%.) | 4 (Weed-killing rate is 90-99%.) | 5 (Weed-killing rate is 100%.) | 4 (Weed-killing rate is 90-99%.) | 5 (Weed-killing rate is 100%.) | 5 (Weed-killing rate is 100%.) | 5 (Weed-killing rate is 100%.) | 5 (Weed-killing rate is 100%.) | 5 (Weed-killing rate is 100%.) | 5 (Weed-killing rate is 100%.) | 5 (Weed-killing rate is 100%.) | 4 (Crop-killing rate is 90-99%.) | 4 (Crop-killing rate is 90-99%.) | 4 (Crop-killing rate is 90-99%.) | 5 (Crop-killing rate is 100%.) | 5 (Weed-killing rate is 100%.) | 4 (Weed-killing rate is 90-99%.) | 5 (Weed-killing rate is 100%.) | 5 (Weed-killing rate is 100%.) | 5 (Weed-killing rate is 100%.) | Herbicidal effect Ec [17]: 5 (Weed-killing rate is 100%.)
CCNC(=O)c1nc2sccc2cc1C(=O)Nc1c(CC)ccc(Cl)c1CC [compound 798] | 5 (Weed-killing rate is 100%.) | 5 (Weed-killing rate is 100%.) | 5 (Weed-killing rate is 100%.) | 5 (Weed-killing rate is 100%.) | 5 (Weed-killing rate is 100%.) | 5 (Weed-killing rate is 100%.) | 5 (Weed-killing rate is 100%.) | 5 (Weed-killing rate is 100%.) | 5 (Weed-killing rate is 100%.) | 5 (Weed-killing rate is 100%.) | 5 (Weed-killing rate is 100%.) | 4 (Crop-killing rate is 90-99%.) | 5 (Crop-killing rate is 100%.) | 4 (Crop-killing rate is 90-99%.) | 5 (Crop-killing rate is 100%.) | 5 (Weed-killing rate is 100%.) | 5 (Weed-killing rate is 100%.) | 5 (Weed-killing rate is 100%.) | 5 (Weed-killing rate is 100%.) | 5 (Weed-killing rate is 100%.) | Herbicidal effect Ec [17]: 5 (Weed-killing rate is 100%.)
CCCNC(=O)c1nc2sccc2cc1C(=O)Nc1c(CC)ccc(Cl)c1CC [compound 799] | 5 (Weed-killing rate is 100%.) | 5 (Weed-killing rate is 100%.) | 5 (Weed-killing rate is 100%.) | 5 (Weed-killing rate is 100%.) | 5 (Weed-killing rate is 100%.) | 5 (Weed-killing rate is 100%.) | 5 (Weed-killing rate is 100%.) | 5 (Weed-killing rate is 100%.) | 5 (Weed-killing rate is 100%.) | 5 (Weed-killing rate is 100%.) | 5 (Weed-killing rate is 100%.) | 5 (Crop-killing rate is 100%.) | 5 (Crop-killing rate is 100%.) | 5 (Crop-killing rate is 100%.) | 5 (Crop-killing rate is 100%.) | 5 (Weed-killing rate is 100%.) | 5 (Weed-killing rate is 100%.) | 5 (Weed-killing rate is 100%.) | 5 (Weed-killing rate is 100%.) | 5 (Weed-killing rate is 100%.) | Herbicidal effect Ec [17]: 5 (Weed-killing rate is 100%.)
Cc1c(Cl)cccc1NC(=O)c1cc2ccsc2nc1C(=O)NC1CCCC1 [compound 811] | 5 (Weed-killing rate is 100%.) | 4 (Weed-killing rate is 90-99%.) | 5 (Weed-killing rate is 100%.) | 4 (Weed-killing rate is 90-99%.) | 5 (Weed-killing rate is 100%.) | 5 (Weed-killing rate is 100%.) | 5 (Weed-killing rate is 100%.) | 5 (Weed-killing rate is 100%.) | 5 (Weed-killing rate is 100%.) | 5 (Weed-killing rate is 100%.) | 5 (Weed-killing rate is 100%.) | 4 (Crop-killing rate is 90-99%.) | 5 (Crop-killing rate is 100%.) | 4 (Crop-killing rate is 90-99%.) | 5 (Crop-killing rate is 100%.) | 5 (Weed-killing rate is 100%.) | 5 (Weed-killing rate is 100%.) | 5 (Weed-killing rate is 100%.) | 5 (Weed-killing rate is 100%.) | 5 (Weed-killing rate is 100%.) | Herbicidal effect Ec [17]: 5 (Weed-killing rate is 100%.)
